One series addresses T1, human Granzyme B (hGzmB) (Homo sapiens, UniProt P10144).
T1 construct: purchased Froelich Lab, Northshore University Health Systems Research Institute, Evanston, Ill., USA
Put plainly: Human Granzyme B enzymatic inhibition assay (fluorogenic, kinetic). The series is classed as biochemical. To be noted: activity codes, Table 7; read-out: IC50 Activity Range. In outline:
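Human Granzyme B preincubated with compound for 30 min total (5 min shaking, 20 min bench, then reaction temperature). Fluorogenic substrate added and read kinetically, 25 cycles at 1-min intervals. Percent inhibition at one or two concentrations or 8–12-point 3-fold dose response from 20 uM, replicates, with IC50 by non-linear regression.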

Series [1] is described as follows: Kinetic solubility determination in PBS. Conditions: PBS 1X pH 7.4, 2.0% DMSO, 24 hour incubation at ambient temperature; for solubility at 24 h: phosphate buffered saline (PBS 1×), 21 °C, pH 7.4, aqueous buffer, kinetic from dmso stock. The series is classed as physicochemical. As to the method:
Kinetic solubility buffer (phosphate buffered saline (PBS, 1×) at pH 7.4) was prepared from PBS (10×) solution, (Fisher Scientific, Pittsburgh, Pa., USA, 10×), by adding PBS (50 mL, 10×) to approximately water (450 mL HPLC grade). The volume of the solution was then adjusted to 500 mL for a total dilution factor of 1:10 and a final PBS concentration of 1×. The pH of the final solution (PBS (1×)) was measured and found to be 7.4.
A DMSO stock solution (typically 10 mM or greater) was used for each compound to be tested. A final DMSO concentration of 2.0% and maximum theoretical compound concentration of typically 200 μM (or greater) was achieved by diluting an aliquot (6 μl) of each stock with kinetic solubility buffer (294 μl, PBS (1×) at pH 7.4) using a liquid handling system (Hamilton STARlet, Hamilton Robotics, Inc., Reno, Nev., USA) and incubated directly in a solubility filter plate (Millipore, Billerica, Mass., USA). Following 24 hour incubation at ambient temperature (20.5-21.7° C.), each sample was vacuum filtered. The filtrate was injected into the chemiluminescent nitrogen detector for quantification (Automated Discovery Workstation, Analiza, Inc., Cleveland, Ohio, USA). Each result was reported both in μM and μg/mL units. Three separate on-board performance indicating standards were assayed in triplicate with each test compound to ensure test results were within the acceptable range.
The equimolar nitrogen response of the detector was calibrated using standards which spanned the dynamic range of the instrument from 0.08 to 4500 μg/ml nitrogen. Each filtrate was quantified with respect to this calibration curve. Each calculated solubility value was corrected for background nitrogen present in the DMSO, and buffer used to prepare each sample. All reported values for samples containing adjacent nitrogen atoms in a ring structure were corrected for the expected non-equimolar response. Each calculated solubility result assumed that each sample was free of nitrogen containing impurities and was stable under the assay conditions. Analyses were performed at Analiza Inc. (Cleveland, Ohio, USA) by published methods (Bhattachar, S. N., et al, J. Pharma. BioMed Anal. 41:152-7 2006).

Setting [2] is: read-out: Solubility in aqueous PBS Buffer (1X, pH 7.4).
Setting [3] is: read-out: Solubility in aqueous PBS Buffer (1X, pH 7.4), ug/mL.

Where a name gives a salt, the structure may show the parent alone. Read-outs that look alike come from different tables or passages of the source.

T1 sequence (P10144 21-247): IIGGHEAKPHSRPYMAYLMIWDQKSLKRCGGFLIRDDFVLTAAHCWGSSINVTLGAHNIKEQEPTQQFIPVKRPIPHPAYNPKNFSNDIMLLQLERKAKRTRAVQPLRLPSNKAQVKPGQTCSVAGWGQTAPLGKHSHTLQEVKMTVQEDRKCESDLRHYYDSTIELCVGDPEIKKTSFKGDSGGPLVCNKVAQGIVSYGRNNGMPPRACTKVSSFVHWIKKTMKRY

On to `CC(C)[C@H](NC(=O)CCC(=O)O)C(=O)NCC(=O)N1c2ccccc2C[C@H]1C(=O)NCc1nn[nH]n1` [Example A46, 3-{[(1S)-2-Methyl-1-({2-Oxo-2-[(2S)-2-[(2H-1,2,3,4-Tetrazol-5-Ylmethyl)Carbamoyl]-2,3-Dihydro-1H-Indol-1-Yl]Ethyl}Carbamoyl)Propyl]Carbamoyl}Propanoic Acid], for which the IC50 (as a rule, the point on the concentration scale where inhibition reaches its midpoint) at human Granzyme B (hGzmB) is under 100 nM. The solubility at 24 h in series [1] (setting [2]) was over 750 µM; in series [1] (setting [3]) it was over 375 µg/mL.

On to `CC[C@H](C)[C@H](NC(=O)Cc1ccccn1)C(=O)NCC(=O)N1c2ccccc2C[C@H]1C(=O)NCc1nn[nH]n1` [Example A4, (2S)-1-{2-[(2S,3S)-3-Methyl-2-[2-(Pyridin-2-Yl)Acetamido]Pentanamido]Acetyl}-N-(2H-1,2,3,4-Tetrazol-5-Ylmethyl)-2,3-Dihydro-1H-Indole-2-Carboxamide], for which the IC50 at human Granzyme B (hGzmB) fell in the range of 100 to 1000 nM. For the same compound, the values for the solubility at 24 h in series [1] (setting [2]) and in series [1] (setting [3]) were over 150 µM and over 80 µg/mL, respectively.

Regarding `CC[C@H](C)[C@H](NC(=O)Cc1ccccc1)C(=O)NCC(=O)N1c2cc(N)ccc2C[C@H]1C(=O)NCc1nn[nH]n1` [Example C20, (2S)-6-Amino-1-{2-[(2S,3S)-3-Methyl-2-(2-Phenylacetamido)Pentanamido]Acetyl}-N-(2H-1,2,3,4-Tetrazol-5-Ylmethyl)-2,3-Dihydro-1H-Indole-2-Carboxamide], the IC50 at human Granzyme B (hGzmB) is 100 to 1000 nM. Moreover, the solubility at 24 h in series [1] (setting [2]) was 596 µM; in series [1] (setting [3]), 348 µg/mL.

Take `CC[C@H](C)[C@H](NC(=O)C1CCCC1C(=O)O)C(=O)NCC(=O)N1c2ccccc2C[C@H]1C(=O)NCc1nn[nH]n1` (single isomer, unassigned) [Example A22-1]: the IC50 on human Granzyme B (hGzmB) is under 100 nM. Also, the results for the solubility at 24 h in series [1] (setting [2]) and in series [1] (setting [3]) were over 750 µM and over 416 µg/mL, respectively.

Regarding `CC[C@H](C)[C@H](NC(=O)C1CCCC1C(=O)O)C(=O)NCC(=O)N1c2ccccc2C[C@H]1C(=O)NCc1nn[nH]n1` (single isomer, unassigned) [Example A22-2], at human Granzyme B (hGzmB), the IC50 is under 100 nM. For the same compound, in series [1], the “Solubility in aqueous PBS Buffer (1X, pH 7.4), uM” value (shortened to “Solubility … uM”) is given as over 750 uM and the “Solubility in aqueous PBS Buffer (1X, pH 7.4), ug/mL” value (from here on “Solubility … ug/mL”) is over 416 ug/mL.

As for `CC[C@H](C)[C@H](NC(=O)[C@H](O)[C@@H](O)C(=O)O)C(=O)NCC(=O)N1c2ccccc2C[C@H]1C(=O)NCc1nn[nH]n1` [Example A32, (2R,3R)-2,3-Dihydroxy-3-{[(1S,2S)-2-Methyl-1-({2-Oxo-2-[(2S)-2-[(2H-1,2,3,4-Tetrazol-5-Ylmethyl)Carbamoyl]-2,3-Dihydro-1H-Indol-1-Yl]Ethyl}Carbamoyl)Butyl]Carbamoyl}Propanoic Acid], the IC50 on human Granzyme B (hGzmB) was under 100 nM. Besides, the solubility at 24 h is over 750 µM in series [1] (setting [2]) and over 410 µg/mL in series [1] (setting [3]).

`CC[C@H](C)[C@H](NC(=O)CC(C)CC(=O)O)C(=O)NCC(=O)N1c2ccccc2C[C@H]1C(=O)NCc1nn[nH]n1` (single isomer, unassigned) [Example A17-2]: at human Granzyme B (hGzmB), the half-maximal inhibitory concentration (IC50) is 100 to 1000 nM. Also, in series [1], the “Solubility … uM” value is listed as over 750 uM and the “Solubility … ug/mL” value was over 407 ug/mL.

With `CC[C@H](C)[C@H](NC(=O)Cc1csc(N)n1)C(=O)NCC(=O)N1c2ccccc2C[C@H]1C(=O)NCc1nn[nH]n1` [Example A10, (2S)-1-{2-[(2S,3S)-2-[2-(2-Amino-1,3-Thiazol-4-Yl)Acetamido]-3-Methylpentanamido]Acetyl}-N-(2H-1,2,3,4-Tetrazol-5-Ylmethyl)-2,3-Dihydro-1H-Indole-2-Carboxamide Hydrochloride], the half-maximal inhibitory concentration (IC50) on human Granzyme B (hGzmB) was in the range of 100 to 1000 nM. The values for the solubility at 24 h in series [1] (setting [2]) and in series [1] (setting [3]) were over 750 µM and over 443 µg/mL, respectively.

For `CC[C@H](C)[C@H](NC(=O)CCN)C(=O)NCC(=O)N1c2ccccc2C[C@H]1C(=O)NCc1nn[nH]n1` [Example A6, (2S)-1-{2-[(2S,3S)-2-(3-Aminopropanamido)-3-Methylpentanamido]Acetyl}-N-(2H-1,2,3,4-Tetrazol-5-Ylmethyl)-2,3-Dihydro-1H-Indole-2-Carboxamide], at human Granzyme B (hGzmB), the IC50 was in the range of 1000 to 10000 nM. In addition, the values for the solubility at 24 h in series [1] (setting [2]) and in series [1] (setting [3]) were over 150 µM and over 78 µg/mL, respectively.

As to `CC[C@H](C)[C@H](NC(=O)Cc1ccncc1)C(=O)NCC(=O)N1c2ccccc2C[C@H]1C(=O)NCc1nn[nH]n1` [Example A2, (2S)-1-{2-[(2S,3S)-3-Methyl-2-[2-(Pyridin-4-Yl)Acetamido]Pentanamido]Acetyl}-N-(2H-1,2,3,4-Tetrazol-5-Ylmethyl)-2,3-Dihydro-1H-Indole-2-Carboxamide], on human Granzyme B (hGzmB), the half-maximal inhibitory concentration (IC50) was 100 to 1000 nM. The figures for the solubility at 24 h in series [1] (setting [2]) and in series [1] (setting [3]) were over 150 µM and over 80 µg/mL, respectively.

Consider `CC[C@H](C)[C@H](NC(=O)C(C)(C)CCC(=O)O)C(=O)NCC(=O)N1c2ccccc2C[C@H]1C(=O)NCc1nn[nH]n1` [Example A55, 4,4-Dimethyl-4-{[(1S,2S)-2-Methyl-1-({2-Oxo-2-[(2S)-2-[(2H-1,2,3,4-Tetrazol-5-Ylmethyl)Carbamoyl]-2,3-Dihydro-1H-Indol-1-Yl]Ethyl}Carbamoyl)Butyl]Carbamoyl}Butanoic Acid], for which the concentration for half-maximal inhibition (IC50) at human Granzyme B (hGzmB) was under 100 nM. The solubility at 24 h was over 750 µM in series [1] (setting [2]) and over 418 µg/mL in series [1] (setting [3]).

For `CC[C@H](C)[C@H](NC(=O)C(C)CC(=O)O)C(=O)NCC(=O)N1c2ccccc2C[C@H]1C(=O)NCc1nn[nH]n1` (single isomer, unassigned) [Example A30-2], the IC50 on human Granzyme B (hGzmB) was under 100 nM. In addition, in series [1], the “Solubility … uM” value was over 750 uM and the “Solubility … ug/mL” value is reported as over 396 ug/mL.

On to `CC[C@H](C)[C@H](NC(=O)C1CCCCC1C(=O)O)C(=O)NCC(=O)N1c2ccccc2C[C@H]1C(=O)NCc1nn[nH]n1` (single isomer, unassigned) [Example A23-1], for which the IC50 at human Granzyme B (hGzmB) is under 100 nM. Moreover, in series [1], the “Solubility … uM” value is recorded as over 750 uM and the “Solubility … ug/mL” value is on record as over 426 ug/mL.

With `CC[C@H](C)[C@H](NC(=O)C(F)(F)C(F)(F)C(=O)O)C(=O)NCC(=O)N1c2ccccc2C[C@H]1C(=O)NCc1nn[nH]n1` [Example A43, 2,2,3,3-Tetrafluoro-3-{[(1S,2S)-2-Methyl-1-({2-Oxo-2-[(2S)-2-[(2H-1,2,3,4-Tetrazol-5-Ylmethyl)Carbamoyl]-2,3-Dihydro-1H-Indol-1-Yl]Ethyl}Carbamoyl)Butyl]Carbamoyl}Propanoic Acid], the IC50 at human Granzyme B (hGzmB) is under 100 nM. Moreover, the solubility at 24 h in series [1] (setting [2]) is 583 µM; in series [1] (setting [3]), 342 µg/mL.

Turning to `CC[C@H](C)[C@H](NC(=O)Cc1ccccc1)C(=O)NCC(=O)N1c2ccc(N)cc2C[C@H]1C(=O)NCc1nn[nH]n1` [Example C32, (2S)-5-Amino-1-{2-[(2S,3S)-3-Methyl-2-(2-Phenylacetamido)Pentanamido]Acetyl}-N-(2H-1,2,3,4-Tetrazol-5-Ylmethyl)-2,3-Dihydro-1H-Indole-2-Carboxamide Hydrochloride], the IC50 at human Granzyme B (hGzmB) was 100 to 1000 nM. In addition, the solubility at 24 h in series [1] (setting [2]) was over 750 µM; in series [1] (setting [3]), over 438 µg/mL.

Turning to `CC[C@H](C)[C@H](NC(=O)CC1(CC(=O)O)CCCC1)C(=O)NCC(=O)N1c2ccccc2C[C@H]1C(=O)NCc1nn[nH]n1` [Example A19, 2-[1-({[(1S,2S)-2-Methyl-1-({2-Oxo-2-[(2S)-2-[(2H-1,2,3,4-Tetrazol-5-Ylmethyl)Carbamoyl]-2,3-Dihydro-1H-Indol-1-Yl]Ethyl}Carbamoyl)Butyl]Carbamoyl}Methyl)Cyclopentyl]Acetic Acid], the IC50 on human Granzyme B (hGzmB) was under 100 nM. Moreover, the values for the solubility at 24 h in series [1] (setting [2]) and in series [1] (setting [3]) were 672 µM and 391 µg/mL, respectively.

Regarding `CC[C@H](C)[C@H](NC(C)=O)C(=O)NCC(=O)N1c2ccccc2C[C@H]1C(=O)NCc1nn[nH]n1` [Example A15, (2S)-1-{2-[(2S,3S)-2-Acetamido-3-Methylpentanamido]Acetyl}-N-(2H-1,2,3,4-Tetrazol-5-Ylmethyl)-2,3-Dihydro-1H-Indole-2-Carboxamide], the IC50 at human Granzyme B (hGzmB) is 100 to 1000 nM. Moreover, the results for the solubility at 24 h in series [1] (setting [2]) and in series [1] (setting [3]) were 565 µM and 258 µg/mL, respectively.

For the origin of these results see US10329324B2 (viDA Therapeutics Inc., priority 2013, dated 2019).
